Measurements published in patent US12528778B2, “Microbiocidal derivatives” (SYNGENTA CROP PROTECTION AG, priority 2019, dated 2026).

Experiments:
Format in all cases: cell-based
[1] = system: Monographella nivalis (Microdochium nivale); test: Monographella nivalis (Microdochium nivale) / liquid culture (foot rot cereals); details: PDB liquid culture, 24° C., growth inhibition determined photometrically 4-5 days after application, vs untreated control
Procedure: (§1) Example B5: Monographella nivalis (Microdochium nivale)/Liquid Culture (Foot Rot Cereals) Conidia of the fungus from cryogenic storage are directly mixed into nutrient broth (PDB potato dextrose broth). After placing a (DMSO) solution of test compound into a microtiter plate (96-well format), the nutrient broth containing the fungal spores is added. The test plates are incubated at 24° C. and the inhibition of growth is determined photometrically 4-5 days after application. […] […]-49, and P-50.

[2] = system: Glomerella lagenarium (Colletotrichum lagenarium); test: Glomerella lagenarium (Colletotrichum lagenarium) / liquid culture (anthracnose); details: Colletotrichum orbiculare, PDB liquid culture, 24° C., growth inhibition measured photometrically 3-4 days after application, vs untreated control
Procedure: as §1, with “B2: Glomerella lagenarium (Colletotrichum lagenarium)/Liquid” for “B5: Monographella nivalis (Microdochium nivale)/Liquid”, “(Anthracnose)” for “(Foot Rot Cereals)”, “measured” for “determined”, “3-4” for “4-5”

[3] = system: Mycosphaerella graminicola (Septoria tritici); test: Mycosphaerella graminicola (Septoria tritici) / liquid culture (Septoria blotch); details: Zymoseptoria tritici, PDB liquid culture, 24° C., growth inhibition determined photometrically 4-5 days after application, vs untreated control
Procedure: Example B12: Mycosphaerella graminicola (Septoria tritici)/Liquid Culture (Septoria Blotch) Conidia of the fungus from cryogenic storage are directly mixed into nutrient broth (PDB potato dextrose broth). After placing a (DMSO) solution of test compound into a microtiter plate (96-well format), the nutrient broth containing the fungal spores is added. The test plates are incubated at 24° C. and the inhibition of growth is determined photometrically 4-5 days after application. […] […]-48, and P-49.

Row | SMILES | inhibition of growth at 20 ppm [1] [%] | inhibition of growth at 20 ppm [2] [%] | inhibition of growth at 20 ppm [3] [%]
1 | COc1ncc(NC2CCC2)nc1C(=O)NC1CCC1(C)C (stereo not shown) [Compound P-2, 6-(cyclobutylamino)-N-(2,2-dimethylcyclobutyl)-3-methoxy-pyrazine-2-carboxamide] | ≥ 80 | ≥ 80 | ≥ 80
2 | COc1ncc(NC2CC2)nc1C(=O)NC1CCC1(C)C (stereo not shown) [Compound P-3, 6-(cyclopropylamino)-N-(2,2-dimethylcyclobutyl)-3-methoxy-pyrazine-2-carboxamide] | ≥ 80 | ≥ 80 | 
3 | COc1ncc(Nc2cc(F)cc(F)c2)nc1C(=O)NC1(c2ccccn2)CC1 [Compound P-7, 6-(3,5-difluoroanilino)-3-methoxy-N-[1-(2-pyridyl)cyclopropyl] pyrazine-2-carboxamide] | ≥ 80 |  | 
4 | COc1ncc(Nc2cnsc2)nc1C(=O)NCCc1ccc(OC(F)(F)F)cc1 [Compound P-10] | ≥ 80 | ≥ 80 | 
5 | COc1ncc(Nc2cnsc2)nc1C(=O)NCC1(C(F)(F)F)CC1 [Compound P-11] | ≥ 80 | ≥ 80 | ≥ 80
6 | COc1ncc(Nc2cnsc2)nc1C(=O)NCc1cccc2c1OC(F)(F)O2 [Compound P-12, N-[(2,2-difluoro-1,3-benzodioxol-4-yl)methyl]-6-(isothiazol-4-ylamino)-3-methoxy-pyrazine-2-carboxamide] | ≥ 80 | ≥ 80 | ≥ 80
7 | COc1ncc(Nc2cnsc2)nc1C(=O)NC1CCc2cc(C(F)(F)F)ccc21 (stereo not shown) [Compound P-15, 6-(isothiazol-4-ylamino)-3-methoxy-N-[5-(trifluoromethyl)indan-1-yl]pyrazine-2-carboxamide] | ≥ 80 | ≥ 80 | ≥ 80
8 | CCON=C(CNC(=O)c1nc(Nc2cc(F)cc(F)c2)cnc1OC)c1ncc(Cl)cc1Cl [Compound P-17, N-[2-(3,5-dichloro-2-pyridyl)-2-ethoxyimino-ethyl]-6-(3,5-difluoroanilino)-3-methoxy-pyrazine-2-carboxamide] | ≥ 80 | ≥ 80 | 
9 | COc1ncc(Nc2cc(F)cc(F)c2)nc1C(=O)NCCc1ccc(OC(F)(F)F)cc1 [Compound P-18, 6-(3,5-difluoroanilino)-3-methoxy-N-[2-[4-(trifluoromethoxy)phenyl]ethyl]pyrazine-2-carboxamide] | ≥ 80 | ≥ 80 | 
10 | COc1ncc(Nc2cc(F)cc(F)c2)nc1C(=O)NCc1cccc2ccnn12 [Compound P-27] |  | ≥ 80 | 
11 | COc1ncc(Nc2cc(F)cc(F)c2)nc1C(=O)NC1CCc2ccc(C(F)(F)F)cc21 (stereo not shown) [Compound P-31, 6-(3,5-difluoroanilino)-3-methoxy-N-[6-(trifluoromethyl)indan-1-yl]pyrazine-2-carboxamide] |  | ≥ 80 | ≥ 80
12 | COc1ncc(Nc2cc(F)cc(F)c2)nc1C(=O)NC1CCc2cc(C(F)(F)F)ccc21 (stereo not shown) [Compound P-32, 6-(3,5-difluoroanilino)-3-methoxy-N-[5-(trifluoromethyl)indan-1-yl]pyrazine-2-carboxamide] | ≥ 80 | ≥ 80 | ≥ 80
13 | CCON=C(CNC(=O)c1nc(Nc2cc(F)nc(F)c2)cnc1OC)c1ncc(Cl)cc1Cl [Compound P-33, N-[2-(3,5-dichloro-2-pyridyl)-2-ethoxyimino-ethyl]-6-[(2,6-difluoro-4-pyridyl)amino]-3-methoxy-pyrazine-2-carboxamide] |  | ≥ 80 | 
14 | CC1(C)CCC1NC(=O)c1cncc(Nc2cc(F)nc(F)c2)n1 (stereo not shown) [Compound P-46, 6-[(2,6-difluoro-4-pyridyl)amino]-N-(2,2-dimethylcyclobutyl) pyrazine-2-carboxamide] | ≥ 80 | ≥ 80 | ≥ 80
